Among the data in patent publication US8389505B2, “Adamantane derivatives of AZA-crown ethers and their use in treatment of tumor” (Rudjer Boskovic Institute, priority 2009, dated 2013) are IC50 and antiproliferative activity values, retold here.

What all share (format): cell-based
One test concerns SW 620 (colon carcinoma). Description: MTT proliferation assay, SW 620 cells. As to conditions: Homo sapiens, 72 hours incubation, read-out: IC50 (concentration that causes 50% growth inhibition), SW 620. The protocol:
(§1) The described assay was used to test the effects of compounds on the proliferation of various human tumor cell lines, whereby cytostatic and cytotoxic effects on cells can be differentiated. The experiments were carried out on human cell lines, which were derived from 6 tumor types. The following cell lines were used: MCF-7 (breast carcinoma), SW 620 (colon carcinoma), HCT 116 (colon carcinoma), MOLT-4 (acute lymphoblastic leukemia), H 460 (lung carcinoma), HeLa (cervical carcinoma), MiaPaCa-2 (pancreatic carcinoma).
(§2) MCF-7, SW 620, HCT 116, HeLa, MiaPaCa-2 and H 460 cell lines were cultured as monolayers and maintained in Dulbecco's modified Eagle medium (DMEM), while MOLT-4 cells were cultured in suspension in nutritive medium RPMI 1640, both supplemented with 10% fetal bovine serum (FBS), 2 mM L-glutamine, 100 U/ml penicillin and 100 μg/ml streptomycin in a humidified atmosphere with 5% CO2 at 37° C.
(§3) The panel cell lines were inoculated onto a series of standard 96-well microtiter plates on day 0, at 1×10^4 to 3×10^4 cells/ml, depending on the doubling times of the specific cell line. Test agents were added next day to the cell lines in five consecutive 10-fold dilutions (10^−8 to 10^−4 M) and incubated for a further 72 hours. Working dilutions were freshly prepared on the day of testing. The solvent (DMSO) was also tested for eventual inhibitory activity by adjusting its concentration to be the same as in working concentrations. After 72 hours of incubation the cell growth rate was evaluated by performing the MTT assay (Mossman, Methods Immunol, 1983, 65, 55-63.), which detects dehydrogenase activity in viable cells. The MTT Cell Proliferation Assay is a colorimetric assay system, which measures the reduction of a tetrazolium component (MTT) into an insoluble formazan produced by mitochondria of viable cells. For this purpose the substance treated medium was discarded and MTT was added to each well in concentration of 20 μg/40 μl. After four hours of incubation the precipitates were dissolved in 160 μl of dimethylsulphoxide (DMSO). The absorbance (OD, optical density) was measured on a microplate reader at 570 nm. The absorbance is directly proportional to the cell viability. The percentage of growth (PG) of the cell lines was calculated according to one of the following two equations (according to the National Cancer Institute protocols, www.dtp.nci.nih.gov): If (mean ODtest−mean ODtzero)≧0 then PG=100×(mean ODtest−mean ODtzero)/(mean ODctrl−mean ODtzero). If (mean ODtest−mean ODtzero)<0 then: PG=100×(mean ODtest−mean ODtzero)/ODtzero.
(§4) Mean ODtzero=the average of optical density measurements before exposure of cells to the test compound.
(§5) Mean ODtest=the average of optical density measurements after the desired period of time.
(§6) Mean ODctrl=the average of optical density measurements after the desired period of time with no exposure of cells to the test compound.
(§7) Each test point was performed in quadruplicate in three individual experiments. The results were expressed as IC50, a concentration necessary for 50% of proliferation inhibition. Each result is a mean value from three separate experiments. The IC50 measures the growth inhibitory power of the test agent and represents the concentration that causes 50% growth inhibition. The IC50 is calculated from dose-response curves using linear regression analysis by fitting the test concentrations that give PG values above and below the respective reference value (e.g. 50% of inhibition for IC50). Therefore, a “real” value for any of the response parameters is obtained only if at least one of the tested drug concentrations falls above, and likewise at least one falls below the respective reference value. If however, for a given cell line or test agent all of the tested concentrations produce PGs exceeding the respective reference level of effect (e.g. PG value of 50%), then the highest tested concentration is assigned as the default value. […]
For orientation: Tetrazolium assays rely on reduction of a dye to a coloured formazan, in cell work by metabolically active cells.

In test [1] the test system is MiaPaCa-2 (pancreatic carcinoma). Description: MTT proliferation assay, MiaPaCa-2 cells. As to conditions: Homo sapiens, MIA PaCa-2, 72 hours incubation, read-out: IC50 (concentration that causes 50% growth inhibition), MiaPaCa-2. The protocol: as §1, §2, §3, §4, §5, §6, §7
A further test deals with MCF-7 (breast carcinoma). Description: MTT proliferation assay, MCF-7 cells. As to conditions: Homo sapiens, MCF7, 72 hours incubation, read-out: IC50 (concentration that causes 50% growth inhibition), MCF-7. The protocol:
as §1, §2, §3, §4, §5, §6, §7

Test [2] relates to HeLa (cervical carcinoma). Description: MTT proliferation assay, HeLa cells. As to conditions: Homo sapiens, 72 hours incubation, read-out: IC50 (concentration that causes 50% growth inhibition), Hela. The protocol: as §1, §2, §3, §4, §5, §6, §7
Test [3] has as its system MOLT-4 (acute lymphoblastic leukemia). Description: MTT proliferation assay, MOLT-4 cells. As to conditions: Homo sapiens, 72 hours incubation, read-out: IC50 (concentration that causes 50% growth inhibition), MOLT-4. The protocol:
as §1, §2, §3, §4
(§8) Mean ODtest=the average of optical density measurements after the desired period of time. […]

A further test has as its system H 460 (lung carcinoma). Description: MTT proliferation assay, H 460 cells. As to conditions: Homo sapiens, NCI-H460, 72 hours incubation, read-out: IC50 (concentration that causes 50% growth inhibition), H 460. The protocol: as §1, §2, §3, §4, §5, §6, §7
Test [4] deals with various human tumor cell lines. Description: MTT proliferation assay, panel of tumor cell lines. The conditions noted are these: up to maximal tested concentration (c=100 μM) during 72 hours, all cell lines of Table 1. The protocol: The described assay was used to test the effects of compounds on the proliferation of various human tumor cell lines, whereby cytostatic and cytotoxic effects on cells can be differentiated. The experiments were carried out on human cell lines, which were derived from 6 tumor types. The following cell lines were used: MCF-7 (breast carcinoma), SW 620 (colon carcinoma), HCT 116 (colon carcinoma), MOLT-4 (acute lymphoblastic leukemia), H 460 (lung carcinoma), HeLa (cervical carcinoma), MiaPaCa-2 (pancreatic carcinoma). […]
The panel cell lines were inoculated onto a series of standard 96-well microtiter plates on day 0, at 1×10^4 to 3×10^4 cells/ml, depending on the doubling times of the specific cell line. […] After 72 hours of incubation the cell growth rate was evaluated by performing the MTT assay (Mossman, Methods Immunol, 1983, 65, 55-63.), which detects dehydrogenase activity in viable cells. […] The absorbance (OD, optical density) was measured on a microplate reader at 570 nm. The absorbance is directly proportional to the cell viability. The percentage of growth (PG) of the cell lines was calculated according to one of the following two equations (according to the National Cancer Institute protocols, www.dtp.nci.nih.gov): If (mean ODtest−mean ODtzero)≧0 then PG=100×(mean ODtest−mean ODtzero)/(mean ODctrl−mean ODtzero). […]

In test [5] the test system is HCT 116 (colon carcinoma). Description: MTT proliferation assay, HCT 116 cells. The conditions noted are these: Homo sapiens, 72 hours incubation, read-out: IC50 (concentration that causes 50% growth inhibition), HCT 116. The protocol:
as §1, §2, §3, §4, §8

Regarding `C1COCCOCCNCCOCCOCCN1` [Diaza-18-crown-6, diaza-18-crown-6, reference compound], the IC50 (in the test with SW 620 (colon carcinoma); in test [1]; with MCF-7 (breast carcinoma); in test [2]; in test [3]; with H 460 (lung carcinoma)) was over 100 µM throughout. Also, in test [5], the IC50 is over 100 µM. Besides, the antiproliferative activity entry in test [4] is “did not show any antiproliferative activity”.

As to `C(CN1CCOCCOCCN(CCCC23CC4CC(CC(C4)C2)C3)CCOCCOCC1)CC12CC3CC(CC(C3)C1)C2` [Compound 6, N,N″-Bis[3-(1-adamantyl)propyl]-4,13-diaza-18-crown-6], the IC50 is 1 ± 0.4 µM in the test on SW 620 (colon carcinoma); 1 ± 0.4 µM in the test with MCF-7 (breast carcinoma); 1 ± 1 µM in test [3]; 0.2 ± 0.3 µM with H 460 (lung carcinoma); 0.4 ± 0.4 µM in test [5].

Take `C(CN1CCOCCOCCOCCOCCOCC1)CC12CC3CC(CC(C3)C1)C2` [Compound 2, N-[3-(1-adamantyl)propyl]-aza-18-crown-6]: the IC50 was 9 ± 3 µM with SW 620 (colon carcinoma); 11 ± 2 µM in test [1]; 6 ± 5 µM in the test on MCF-7 (breast carcinoma); 14 ± 3 µM in test [2]; 15 ± 0.1 µM in the test with H 460 (lung carcinoma).

`O=C(CCC12CC3CC(CC(C3)C1)C2)N1CCOCCOCCN(C(=O)CCC23CC4CC(CC(C4)C2)C3)CCOCCOCC1` [Compound 8, N,N′-Bis[1-oxo-3-(1-adamantyl)propyl]-4,13-diaza-18-crown-6]: the IC50 in the test with SW 620 (colon carcinoma) came out at 19 ± 16 µM; with MCF-7 (breast carcinoma) it was 2 ± 0.4 µM; in test [3], 3 ± 0.5 µM; with H 460 (lung carcinoma), 11 ± 5 µM; in test [5] it was 6 ± 4 µM.

As to `O=C(CCC12CC3CC(CC(C3)C1)C2)N1CCOCCOCCOCCOCCOCC1` [Compound 4, N-[1-oxo-3-(1-adamantyl)propyl]-aza-18-crown-6], the IC50 in the test with SW 620 (colon carcinoma) is 13 ± 2 µM; in test [1], 30 ± 3.4 µM; in the test on MCF-7 (breast carcinoma) it was 17 ± 5 µM; in test [2], 28 ± 7 µM; in the test on H 460 (lung carcinoma) it was 72 ± 7 µM.

`O=C(CC12CC3CC(CC(C3)C1)C2)N1CCOCCOCCN(C(=O)CC23CC4CC(CC(C4)C2)C3)CCOCCOCC1` [Compound 7, N,N′-Bis[1-oxo-2-(1-adamantyl)ethyl]-4,13-diaza-18-crown-6]: the IC50 with SW 620 (colon carcinoma) came out at 12 ± 5 µM; in the test on MCF-7 (breast carcinoma), 5 ± 2 µM; in test [3], 6 ± 6 µM; in the test on H 460 (lung carcinoma), 14 ± 1 µM; in test [5], 6 µM.

As for `C1COCCN(CCC23CC4CC(CC(C4)C2)C3)CCOCCOCCN(CCC23CC4CC(CC(C4)C2)C3)CCO1` [Compound 5, N,N′-Bis[2-(1-adamantyl)ethyl]-4,13-diaza-18-crown-6], the IC50 worked out at 2.6 ± 1.9 µM in the test with SW 620 (colon carcinoma); 1.7 ± 0.6 µM in test [1]; 4 ± 0.7 µM in the test with MCF-7 (breast carcinoma); 2.3 ± 1.4 µM in test [2]; 4 ± 3 µM with H 460 (lung carcinoma).

Turning to `C1COCCOCCN(CCC23CC4CC(CC(C4)C2)C3)CCOCCOCCO1` [Compound 1, N-[2-(1-adamantyl)ethyl]-aza-18-crown-6], the IC50 amounted to 9 ± 6 µM with SW 620 (colon carcinoma); 12 ± 0.6 µM in test [1]; 8 ± 4 µM with MCF-7 (breast carcinoma); 16 ± 0.5 µM in test [2]; 15 ± 0.6 µM with H 460 (lung carcinoma).

For `O=C(CC12CC3CC(CC(C3)C1)C2)N1CCOCCOCCOCCOCCOCC1` [Compound 3, N-[1-oxo-2-(1-adamantyl)ethyl]-aza-18-crown-6], the IC50 (with SW 620 (colon carcinoma); in test [1]; with MCF-7 (breast carcinoma); in test [2]; with H 460 (lung carcinoma)) was over 100 µM in each case.
